Experimental data as given in PMC6881253, “The PCNA interaction motifs revisited: thinking outside the PIP-box” (Cellular and Molecular Life Sciences: CMLS, 2019).
Read-outs that look alike come from different tables or passages of the source. Values belong to the substance of their own block, whether it stands above or below them. Ends that are not written are not given here.

Key:
PCNA [1] = target: PCNA; design: method as in 11 sources, ref PMID 15576034 ||| ref PMID 10858286 ||| ref PMID 23139781 ||| ref PMID 30655288 ||| ref PMID 28621305 ||| ...; conditions: ITC, cited from earlier work
human PCNA [2] = target: T1, human PCNA (Homo sapiens, UniProt P12004); experiment: SPR binding of peptides to His6-tagged PCNA captured by anti-His6 antibody; conditions: for Kd: Table S2, SPR, pH 7.5, T 298, This work
human PCNA [3] = target: T1, human PCNA; experiment: ITC, PCNA injected into peptide; type: binding
PCNA [4] = conditions: cited from earlier work
From the text: Supplement 18_2019_3150_MOESM1_ESM.docx, table 2: Table S2: Binding affinities of curated PCNA binding proteins. | column: KD (M)

PCNA [5] = target: PCNA; design: method as in 4 sources, one per row (each row's own in cited_ref): ref PMID 19208623 ||| ref PMID 8876181 ||| ref PMID 24728180 ||| ref PMID 10899134; conditions: SPR, cited from earlier work
[6] = pH 7.5, T 279, ref PMID 23677613
[7] = pH 7.5, T 303, ref PMID 15576034
[8] = pH 7.5, T 298, ref PMID 19208623
[9] = SPR single-cycle kinetics, bimolecular model, 10 mM HEPES, 150 mM NaCl, 0.05% P20, pH 7.4, 25 °C

T1 sequence (P12004 whole entry): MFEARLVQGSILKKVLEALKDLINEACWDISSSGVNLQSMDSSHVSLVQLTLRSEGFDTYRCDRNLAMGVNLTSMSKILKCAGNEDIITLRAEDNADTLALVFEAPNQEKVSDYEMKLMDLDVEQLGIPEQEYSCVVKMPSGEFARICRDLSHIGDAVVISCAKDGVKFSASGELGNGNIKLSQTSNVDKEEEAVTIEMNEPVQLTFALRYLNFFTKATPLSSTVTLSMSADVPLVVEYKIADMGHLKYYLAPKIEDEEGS

Substance: p15 1–111: full-length p15(PAF) protein, literature
Kd (PCNA [1]; pH 7, T 298, ref PMID 25762514): 0.11 µM
Kd (PCNA [1]; pH 7, T 308, ref PMID 25762514): 2.5 µM

Kd (human PCNA [2]): 10.9 µM
Substance: Ac-MDRWLVKW-NH2 [APIM]

Substance: RGQGSQRCIPEFFLAGKQPCTN [FBH1 52–72, literature FBH1 peptide]
Kd (PCNA [1]; [6]): 0.25 µM

fold change (increase) of affinity for PCNA on grafting p21 flanking regions to Fen1 (human PCNA [3]; ITC, versus Fen1 peptide): 60 fold
Substance: Ac-RKRRQGRLDDFFHSKRRL-NH2

Substance: MGRKRLITDSYPVVKRREG [p12 1-19]
Kd (PCNA [1]; pH 7.0, T 298, ref PMID 30655288): 38 µM
Kd (PCNA [4]; NMR, pH 7.0, T 308, ref PMID 30655288): 130 µM

Substance: GKANRQVSITGFFQRK* [p66Polδ 451–466, literature peptide of DNA polymerase δ p66 subunit]
Kd (PCNA [1]; [7]): 15.6 µM

Substance: MDRFLVKGAQGGLLRK [ABH2 1-16, literature ABH2 APIM peptide]
Kd (PCNA [1]; [6]): 0.32 µM

Kd (human PCNA [3]; 10 mM HEPES, 150 mM NaCl, 1 mM EDTA, 1 mM TCEP, pH 7.4, 25 °C, one set of sites, mean of triplicates): 8.3 ± 1.9 µM
Substance: Ac-SESSQTSMTDFYHSKRRL-NH2 [S1]

Substance: RQGSTQGRLDDFFKVTGSLSSA [FEN1 332–353, literature FEN1 peptide]
Kd (PCNA [1]; [7]): 59 µM

Substance: CKRPRPEGMQTLESFFKPLTH [PolEta 694–713, literature DNA polymerase η peptide]
Kd (PCNA [5]; [8]): 400 nM

Substance: SKSRQGSTQGRLDDFF [FEN1 329–344, literature FEN1 peptide]
Kd (PCNA [5]; pH 7.4, T not given, ref PMID 24728180): 84.6 nM

Substance: PANGEQLHLVNYVEDTLDSIES [ING1 4–25, literature ING1 peptide]
Kd (PCNA [4]; NMR, pH 7, T 308, ref PMID 23139781): 12500 µM

Substance: KRRQTSMTDFYH [p21 141–152, literature p21 peptide]
Kd (PCNA [1]; pH 7, T 303, ref PMID 23139781): 0.625 µM
Kd (PCNA [1]; pH 7, T 308, ref PMID 23139781): 1.1 µM

Substance: PKWQKGIGEFFR [p15 59–70, literature p15(PAF) peptide]
Kd (PCNA [1]; pH 7, T 308, ref PMID 25762514): 83 µM

Substance: KDKFIRRWVHKEGFSG [FBH1 605-620, literature FBH1 peptide]
Kd (PCNA [1]; [6]): 0.59 µM

Kd (human PCNA [2]): 2.61 µM
Substance: Ac-RQSTLYSFFPKSPAL-NH2 [MSH6]

Substance: SQGRKRRQTSMTDFYHSKRR [p21 137–156, literature p21 peptide]
Kd (PCNA [5]; [8]): 65 nM

Substance: KTSPGRSVKEEAQNLIRHFFHGRARCES [RecQ5 952-979, literature RecQ5 peptide]
Kd (PCNA [1]; pH 7.0, T 308, ref PMID 30655288): 210 µM

Kd (human PCNA [2]): 34.1 µM
Substance: MIGQKTLYSFFTPSP [UNG2]

fold drop in the affinity for PCNA on mutating Q at the first position to alanine (human PCNA [3]; ITC): 50 fold
Substance: Ac-RKRRATSMTDFYHSKRRL-NH2 [p21^140–157,Q144A]

Substance: FTHFEKEKQHDIRSFFVPQPKK [ZRANB3 511–532, literature ZRANB3 PIP-box peptide]
Kd (PCNA [4]; method not given, pH 7.5, T 298, ref PMID 28621305): 4.8 µM

Substance: QHGKKDSKITDHFMRLPKA [PARG 402–420, literature PARG peptide]
Kd (PCNA [1]; pH 7.4, T 298, ref PMID 28934471): 3.3 µM

Substance: PRPEGMQTLESFFKPLTH* [PolEta 696–713, literature DNA polymerase η peptide]
Kd (PCNA [1]; pH 7.4, T 298, ref PMID 26903512): 11 µM

Substance: KQRVRVKTVPSLFQAKLD TFLWS [TRAIP 447–469, literature TRAIP peptide]
Kd (PCNA [1]; pH 7.4, T 298, ref PMID 26711499): 30.7 µM

Kd (human PCNA [2]): 44.9 µM
Substance: Ac-TQGRLDDFFKVTGSL-NH2 [FEN1]

Substance: QVRRQSLASKHGSDITRFLVKK [ZRANB3 1058–79, literature ZRANB3 APIM peptide]
Kd (PCNA [1]; pH not given, T 298, ref PMID 28621305): 9.2 µM

koff (human PCNA [2]; [9]): 0.14 ± 0.0003 s⁻¹
kon (human PCNA [2]; [9]): 1.7e+06 ± 1e+10 M⁻¹ s⁻¹
Substance: Ac-RQTSMTDFYHSKRRL-NH2 [p21]
